Values of other authors as cited in patent US20240316119A1, “COMPOSITIONS AND METHODS FOR SUPPRESSING PATHOGENIC ORGANISMS” (VEDANTA BIOSCIENCES, INC., priority 2021, published 2024).

Test system: Klebsiella pneumoniae and Citrobacter rodentium
Conditions: reported in Stacy et al. Cell. 2021 184(3):615-627

In the case of `NCCS(=O)(=O)O` [taurine, 2-aminoethanesulfonic acid], the “effect of supplying exogenous taurine alone on microbiota function and resistance to infection” value is given as “sufficient to induce this alteration in microbiota function and enhance resistance”.
